These results are taken from PubChem BioAssay AID743481 (Broad Institute, 2014).

Activity calls are given as the source filed them.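 Rule for the calls: active = compounds lowering cell ATP signal whose fitted AC50 is at most twice their highest tested dose; inconclusive = flat curve with moderate signal loss, or unreliable fit; inactive = the rest.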 A value given as a limit tells only on which side of the number the result lay.

As usually defined, the AC50 is the concentration giving half of the maximal activity seen.

The test system of one assay is HEK293T viability, ATP luminescence, 72 h. Briefly: cytotoxicity in HEK293T cells, dose response, cytotoxicity control, cell-based, CellTiter-Glo luminescence, dry powder (AID 743481).
Details: not given
As to `C[C@@H]1CN([C@@H](C)CO)C(=O)c2cc(NC(=O)C3CCCCC3)ccc2O[C@@H](C)CCCCO[C@H]1CN(C)C(=O)Nc1cccc2ccccc12`, the AC50 is 7.74 µM.

As to `C[C@H](CO)N1C[C@H](C)[C@H](CN(C)C(=O)Nc2ccc(C(F)(F)F)cc2)OCCCC[C@H](C)Oc2ccc(NC(=O)CCC(F)(F)F)cc2C1=O`, the AC50 is > 52 µM (inactive). Still for that read-out and setting: the figure for `C[C@H]1CCCCO[C@@H](CN(C)S(=O)(=O)c2ccc(Cl)cc2)[C@@H](C)CN([C@@H](C)CO)C(=O)c2cc(NC(=O)NC3CCCCC3)ccc2O1` is 15.8 µM; for `COc1ccc(S(=O)(=O)N(C)C[C@@H]2OCCCC[C@H](C)Oc3ccc(NS(=O)(=O)c4ccc(Cl)cc4)cc3C(=O)N([C@@H](C)CO)C[C@@H]2C)cc1` it is 16.4 µM.

System in the next assay: not listed separately
Described as above. Particulars: HEK293T viability, ATP luminescence, 72 h; at 26 µM (top of the series).
Turning to `C[C@H](CO)N1C[C@H](C)[C@H](CN(C)C(=O)Nc2ccc(F)cc2)OCCCC[C@H](C)Oc2ccc(NC(=O)C3CCCCCC3)cc2C1=O`, the activity change, negative = cytotoxicity was -6.61% (inactive). With `CC(C)(C)c1ccc(-c2nc(-c3ccncc3)no2)cc1`, the activity change, negative = cytotoxicity was -16.3% (inactive). For `C[C@H](CO)N1C[C@H](C)[C@H](CN(C)C(=O)Nc2ccc(F)cc2)OCCCC[C@H](C)Oc2ccc(NC(=O)C3CCCC3)cc2C1=O`, the activity change, negative = cytotoxicity is 9.39% (inactive). Same read-out and setting: the figure for `C[C@@H]1CCCCO[C@H](CN(C)C(=O)Nc2cccc3ccccc23)[C@H](C)CN([C@H](C)CO)C(=O)c2cc(NC(=O)C3CCCCC3)ccc2O1` is 3.66% (inactive); for `C[C@H](CO)N1C[C@H](C)[C@H](CN(C)C(=O)Nc2ccc(F)cc2)OCCCC[C@H](C)Oc2ccc(NC(=O)C3CCCCC3)cc2C1=O` it is -7.09% (inactive). The same measure, in the same setting: the figure for `C[C@@H]1CCCCO[C@@H](CN(C)C(=O)Nc2cccc3ccccc23)[C@H](C)CN([C@H](C)CO)C(=O)c2cc(NC(=O)C3CCCCC3)ccc2O1` is -11.7% (inactive); for `C[C@H]1CCCCO[C@@H](CN(C)C(=O)Nc2ccccc2)[C@@H](C)CN([C@@H](C)CO)C(=O)c2cc(NC(=O)NC3CCCCC3)ccc2O1` it is 3.42% (inactive). Still for that read-out and setting: the figure for `Cc1ccc(NC(=O)N(C)C[C@@H]2OCCCC[C@H](C)Oc3ccc(NC(=O)C4CCCCC4)cc3C(=O)N([C@H](C)CO)C[C@@H]2C)cc1` is 9.91% (inactive); for `C[C@H](CO)N1C[C@H](C)[C@H](CN(C)C(=O)Nc2cccc3ccccc23)OCCCC[C@H](C)Oc2ccc(NC(=O)c3ccccc3)cc2C1=O` it is -8.78% (inactive); for `C[C@H](CO)N1C[C@H](C)[C@H](CN(C)C(=O)Nc2ccc(F)cc2)OCCCC[C@H](C)Oc2ccc(NC(=O)Nc3ccccc3)cc2C1=O` it is -10.5% (inactive).

As for `C[C@H](CO)N1C[C@H](C)[C@H](CN(C)C(=O)Nc2ccc(F)cc2)OCCCC[C@H](C)Oc2ccc(NC(=O)Nc3ccc(F)cc3)cc2C1=O`, the activity change, negative = cytotoxicity is -12.4% (inactive). As for `C[C@H](CO)N1C[C@H](C)[C@H](CN(C)C(=O)Nc2ccccc2F)OCCCC[C@H](C)Oc2ccc(NC(=O)C3CCCCC3)cc2C1=O`, the activity change, negative = cytotoxicity is -11.7% (inactive). For `C[C@H](CO)N1C[C@H](C)[C@H](CN(C)C(=O)Nc2ccccc2)OCCCC[C@H](C)Oc2ccc(NC(=O)CCC(F)(F)F)cc2C1=O`, the activity change, negative = cytotoxicity was -6.87% (inactive). As for `C[C@H](CO)N1C[C@H](C)[C@H](CN(C)C(=O)Nc2ccc(C(F)(F)F)cc2)OCCCC[C@H](C)Oc2ccc(NC(=O)NC3CCCCC3)cc2C1=O`, the activity change, negative = cytotoxicity is 5.48% (inactive).

For the compound `C[C@@H]1CCCCO[C@@H](CN(C)C(=O)Nc2cccc3ccccc23)[C@@H](C)CN([C@@H](C)CO)C(=O)c2cc(NC(=O)C3CCCCC3)ccc2O1`, the activity change, negative = cytotoxicity was -16.3% (inactive). On the same count and under the same terms, the figure for `C[C@H](CO)N1C[C@H](C)[C@H](CN(C)C(=O)Nc2ccc(F)cc2)OCCCC[C@H](C)Oc2ccc(NC(=O)C3CCC3)cc2C1=O` is -3.85% (inactive); for `C[C@H](CO)N1C[C@H](C)[C@H](CN(C)C(=O)Nc2ccccc2)OCCCC[C@H](C)Oc2ccc(NC(=O)Nc3ccc4c(c3)OCO4)cc2C1=O` it is -5.94% (inactive); for `COc1ccc(NC(=O)N(C)C[C@@H]2OCCCC[C@H](C)Oc3ccc(NC(=O)C4CCCCC4)cc3C(=O)N([C@H](C)CO)C[C@@H]2C)cc1` it is -7.25% (inactive).

With `C[C@H](CO)N1C[C@H](C)[C@H](CN(C)C(=O)Nc2ccc3c(c2)OCO3)OCCCC[C@H](C)Oc2ccc(NC(=O)C3CCCCC3)cc2C1=O`, the activity change, negative = cytotoxicity was 2.78% (inactive). Regarding `C[C@H]1CCCCO[C@@H](CN(C)C(=O)Nc2cccc3ccccc23)[C@@H](C)CN([C@@H](C)CO)C(=O)c2cc(NC(=O)C3CCCCC3)ccc2O1`, the activity change, negative = cytotoxicity was -14.3% (inactive). With `C[C@H]1CCCCO[C@@H](CN(C)C(=O)Nc2ccc3c(c2)OCO3)[C@@H](C)CN([C@@H](C)CO)C(=O)c2cc(NC(=O)NC3CCCCC3)ccc2O1`, the activity change, negative = cytotoxicity was -7.34% (inactive). Take `C[C@H](CO)N1C[C@H](C)[C@H](CN(C)C(=O)Nc2ccc(F)cc2)OCCCC[C@H](C)Oc2ccc(NC(=O)C3CC3)cc2C1=O`: the activity change, negative = cytotoxicity is -1.35% (inactive). For `C[C@H](CO)N1C[C@H](C)[C@H](CN(C)C(=O)Nc2ccc3ccccc3c2)OCCCC[C@H](C)Oc2ccc(NC(=O)C3CCCCC3)cc2C1=O`, the activity change, negative = cytotoxicity is 7.21% (inactive). On to `C[C@@H]1CN([C@@H](C)CO)C(=O)c2cc(NC(=O)C3CCCCC3)ccc2O[C@@H](C)CCCCO[C@@H]1CN(C)C(=O)Nc1cccc2ccccc12`, for which the activity change, negative = cytotoxicity is -17% (inactive). Take `C[C@@H]1CCCCO[C@H](CN(C)C(=O)Nc2cccc3ccccc23)[C@@H](C)CN([C@@H](C)CO)C(=O)c2cc(NC(=O)C3CCCCC3)ccc2O1`: the activity change, negative = cytotoxicity was 6.63% (inactive). Turning to `C[C@H](CO)N1C[C@H](C)[C@@H](CN(C)C(=O)Nc2cccc3ccccc23)OCCCC[C@H](C)Oc2ccc(NC(=O)C3CCCCC3)cc2C1=O`, the activity change, negative = cytotoxicity is -7.19% (inactive). On to `CC(=O)Nc1ccc2c(c1)C(=O)N([C@H](C)CO)C[C@H](C)[C@H](CN(C)C(=O)Nc1ccc(F)cc1)OCCCC[C@H](C)O2`, for which the activity change, negative = cytotoxicity is -16.5% (inactive). Turning to `C[C@H](CO)N1C[C@H](C)[C@H](CN(C)C(=O)Nc2cccc(F)c2)OCCCC[C@H](C)Oc2ccc(NC(=O)C3CCCCC3)cc2C1=O`, the activity change, negative = cytotoxicity was 9.35% (inactive).

On to `C[C@@H]1CCCCO[C@H](CN(C)C(=O)Nc2cccc3ccccc23)[C@H](C)CN([C@@H](C)CO)C(=O)c2cc(NC(=O)C3CCCCC3)ccc2O1`, for which the activity change, negative = cytotoxicity was -10.3% (inactive). With `C[C@H](CO)N1C[C@H](C)[C@H](CN(C)C(=O)Nc2ccc(F)cc2)OCCCC[C@H](C)Oc2ccc(NC(=O)C3CCOCC3)cc2C1=O`, the activity change, negative = cytotoxicity is -1.32% (inactive).

In the case of `C[C@H](CO)N1C[C@H](C)[C@H](CN(C)C(=O)Nc2ccccc2)OCCCC[C@H](C)Oc2ccc(NC(=O)Nc3ccccc3)cc2C1=O`, the activity change, negative = cytotoxicity was 0.603% (inactive). On to `C[C@H](CO)N1C[C@H](C)[C@H](CN(C)C(=O)Nc2ccccc2)OCCCC[C@H](C)Oc2ccc(NC(=O)NC3CCCCC3)cc2C1=O`, for which the activity change, negative = cytotoxicity is -8.51% (inactive).

For the compound `C[C@H](CO)N1C[C@H](C)[C@H](CN(C)C(=O)Nc2ccc(F)cc2)OCCCC[C@H](C)Oc2ccc(NC(=O)NC3CCCCC3)cc2C1=O`, the activity change, negative = cytotoxicity was -9.87% (inactive). In the case of `C[C@@H]1CCCCO[C@@H](CN(C)C(=O)Nc2cccc3ccccc23)[C@@H](C)CN([C@H](C)CO)C(=O)c2cc(NC(=O)C3CCCCC3)ccc2O1`, the activity change, negative = cytotoxicity is -15.4% (inactive).

For `C[C@H](CO)N1C[C@H](C)[C@H](CN(C)C(=O)Nc2cccc3ccccc23)OCCCC[C@H](C)Oc2ccc(NC(=O)NC3CCCCC3)cc2C1=O`, the activity change, negative = cytotoxicity is -18.8% (inactive).

For `C[C@@H]1CCCCO[C@@H](CN(C)C(=O)Nc2cccc3ccccc23)[C@H](C)CN([C@@H](C)CO)C(=O)c2cc(NC(=O)C3CCCCC3)ccc2O1`, the activity change, negative = cytotoxicity is -12.5% (inactive). Regarding `C[C@H](CO)N1C[C@H](C)[C@H](CN(C)C(=O)Nc2ccccc2)OCCCC[C@H](C)Oc2ccc(NC(=O)C3CCCCC3)cc2C1=O`, the activity change, negative = cytotoxicity was -9.15% (inactive).

With `C[C@H](CO)N1C[C@H](C)[C@H](CN(C)C(=O)Nc2ccc(Cl)cc2)OCCCC[C@H](C)Oc2ccc(NC(=O)C3CCCCC3)cc2C1=O`, the activity change, negative = cytotoxicity is -12.5% (inactive). Take `C[C@@H]1CCCCO[C@H](CN(C)C(=O)Nc2cccc3ccccc23)[C@@H](C)CN([C@H](C)CO)C(=O)c2cc(NC(=O)C3CCCCC3)ccc2O1`: the activity change, negative = cytotoxicity was -3.68% (inactive). Same read-out and setting: then `COc1ccc(NC(=O)N(C)C[C@@H]2OCCCC[C@H](C)Oc3ccc(NC(=O)NC4CCCCC4)cc3C(=O)N([C@H](C)CO)C[C@@H]2C)cc1`, with -10.6% (inactive); and `C[C@H](CO)N1C[C@H](C)[C@H](CN(C)C(=O)Nc2cccc3ccccc23)OCCCC[C@H](C)Oc2ccc(NC(=O)CCC(F)(F)F)cc2C1=O`, with 24.6% (inactive); and `C[C@H](CO)N1C[C@H](C)[C@H](CN(C)C(=O)Nc2ccc3c(c2)OCO3)OCCCC[C@H](C)Oc2ccc(NC(=O)NC3CCCCC3)cc2C1=O`, with -11.1% (inactive). Same read-out and setting: then `C[C@H](CO)N1C[C@H](C)[C@H](CN(C)C(=O)Nc2cccc3ccccc23)OCCCC[C@H](C)Oc2ccc(NC(=O)C3CCCCC3)cc2C1=O`, with -4.95% (inactive); and `C[C@H]1CCCCO[C@@H](CN(C)C(=O)Nc2ccc(F)cc2)[C@@H](C)CN([C@@H](C)CO)C(=O)c2cc(NC(=O)C3CCCCC3)ccc2O1`, with -15.6% (inactive).
